Test results published in US8471061B2 (priority 2004, dated 2013).
Where “and” joins values, the source holds several entries; their conditions need not be identical. Equal values may be shown once.

Assays:
[1] = Acidity measurement of aqueous solutions with a pH meter; type: physicochemical; conditions: 1 to 1000 mM, 25° C., same concentration
Protocol: Aqueous 5-aminolevulinic acid phosphate solutions and aqueous 5-aminolevulinic acid hydrochloride solutions having a concentration of from 1 to 1000 mM were respectively prepared, and their acidity was measured at 25° C. using a pH meter.

[2] = system: Salmonella typhimurium TA 100; assay: Back mutation test, TA100; type: cell-based; conditions: for number of back mutation, single plates: Phosphate
Protocol: (§1) A test was carried out in accordance with the “Standard of Mutagenicity Tests Using Microorganisms” (Ministry of Labor Notification No. 77, 1988) (partial revision by Ministry of Labor Notification No. 67, 1997) and “Regarding the Tests Concerning Novel Chemical Substances and the like” (dated Nov. 21, 2003: Yaku-Shoku-Hatsu No. 1121002, 2003.11.13 Sei-Kyoku, No. 2, Kan-Ho-Ki-Hatsu No. 031121002). To 0.1 ml of a solution prepared by dissolving 5% (w/v) of 5-aminolevulinic acid phosphate in distilled water (Wako Pure Chemical Industries), 0.5 ml of 0.1 M sodium-phosphate buffer (pH 7.4) (0.5 ml S9 mix in the case of metabolism activation test) was added, and 0.1 ml of each test strain suspension (5 strains of histidine-less Salmonella typhimurium TA 100, TA 98, TA 1535 and TA 1537 and tryptophan-less Escherichia coli WP2 uvrA were used (Japan Bioassay Research Center)) was further added thereto, followed by pre-incubation at 37° C. for 20 minutes while shaking. After completion of the culturing, 2.0 ml of top agar kept at 45° C. in advance was added thereto and layered on a minimum glucose agar plate medium. In this case, 2 plates were arranged for each dosage. However, 3 plates were arranged for a solvent control (negative control). […] In the measurement, an inner area of about 80 mm in diameter of a plate of 86 mm in diameter (84 mm in inner diameter) was measured using an automatic colony analyzer (CA-11: manufactured by System Science), and calculated by carrying out area correction and counting loss correction using a personal computer. However, since reliability of the automatic colony analyzer is reduced when the number of colonies is 1,500 or more, 5 points in the plate were manually measured under the stereoscopic microscope to carry out area correction of the average value. A dosage setting test was carried out on 7 dosages diluted at a common ratio of 4, using a dosage of 5,000 μg/plate as the maximum which is the maximum dosage defined by the guideline. […] Growth inhibition of the strains by this substance to be tested was not found. […] Thus, this test was carried out by setting 5 dosages diluted at a common ratio of 2, using a dosage of 5,000 μg/plate as the maximum which is the maximum dosage defined by the guideline.

[3] = system: Salmonella typhimurium TA 98; assay: Back mutation test, TA98; type: cell-based
Protocol: as §1

SMILES: NCC(=O)CCC(=O)O.O=P(O)(O)O [5-aminolevulinic acid phosphate, 5-aminolevulinic Acid Phosphate]
- acidity of aqueous solution (FIG. 1) [1]: lower than that of the aqueous 5-aminolevulinic acid hydrochloride solution
- number of back mutation, mean (in parentheses) ([2]; S9 Mix(+), 313 μg/plate): (134) colonies/plate
- number of back mutation, single plates ([2]; S9 Mix(+), 313 μg/plate): 146 colonies/plate and 122 colonies/plate
- number of back mutation, mean (in parentheses) ([2]; S9 Mix(+), 625 μg/plate): (102) colonies/plate
- number of back mutation, single plates ([2]; S9 Mix(+), 625 μg/plate): 107 colonies/plate and 96 colonies/plate
- number of back mutation, mean (in parentheses) ([2]; S9 Mix(+), 1250 μg/plate): (129) colonies/plate
- number of back mutation, single plates ([2]; S9 Mix(+), 1250 μg/plate): 128 colonies/plate and 129 colonies/plate
- number of back mutation, mean (in parentheses) ([2]; S9 Mix(+), 2500 μg/plate): (106) colonies/plate
- number of back mutation, single plates ([2]; S9 Mix(+), 2500 μg/plate): 109 colonies/plate and 102 colonies/plate
- number of back mutation, mean (in parentheses) ([2]; S9 Mix(+), 5000 μg/plate): (133) colonies/plate
- number of back mutation, single plates ([2]; S9 Mix(+), 5000 μg/plate): 130 colonies/plate and 136 colonies/plate
- number of back mutation, mean (in parentheses) ([2]; S9 Mix(−), 313 μg/plate): (85) colonies/plate
- number of back mutation, single plates ([2]; S9 Mix(−), 313 μg/plate): 87 colonies/plate and 82 colonies/plate
- number of back mutation, mean (in parentheses) ([2]; S9 Mix(−), 625 μg/plate): (90) colonies/plate
- number of back mutation, single plates ([2]; S9 Mix(−), 625 μg/plate): 84 colonies/plate and 95 colonies/plate
- number of back mutation, mean (in parentheses) ([2]; S9 Mix(−), 1250 μg/plate): (99) colonies/plate
- number of back mutation, single plates ([2]; S9 Mix(−), 1250 μg/plate): 84 colonies/plate and 114 colonies/plate
- number of back mutation, mean (in parentheses) ([2]; S9 Mix(−), 2500 μg/plate): (79) colonies/plate
- number of back mutation, single plates ([2]; S9 Mix(−), 2500 μg/plate): 76 colonies/plate and 82 colonies/plate
- number of back mutation, mean (in parentheses) ([2]; S9 Mix(−), 5000 μg/plate): (107) colonies/plate
- number of back mutation, single plates ([2]; S9 Mix(−), 5000 μg/plate): 115 colonies/plate and 99 colonies/plate
- number of back mutation, mean (in parentheses) ([3]; S9 Mix(+), 313 μg/plate): (12) colonies/plate
- number of back mutation, single plates ([3]; S9 Mix(+), 313 μg/plate, Phosphate): 13 colonies/plate and 11 colonies/plate
- number of back mutation, mean (in parentheses) ([3]; S9 Mix(+), 625 μg/plate): (9) colonies/plate
- number of back mutation, single plates ([3]; S9 Mix(+), 625 μg/plate): 9 colonies/plate
- number of back mutation, mean (in parentheses) ([3]; S9 Mix(+), 1250 μg/plate): (21) colonies/plate
- number of back mutation, single plates ([3]; S9 Mix(+), 1250 μg/plate, Phosphate): 14 colonies/plate and 27 colonies/plate
- number of back mutation, mean (in parentheses) ([3]; S9 Mix(+), 2500 μg/plate): (11) colonies/plate
- number of back mutation, mean (in parentheses) ([3]; S9 Mix(+), 5000 μg/plate): (21) colonies/plate
- number of back mutation, single plates ([3]; S9 Mix(+), 5000 μg/plate, Phosphate): 20 colonies/plate and 21 colonies/plate
- number of back mutation, mean (in parentheses) ([3]; S9 Mix(−), 313 μg/plate): (8) colonies/plate
- number of back mutation, single plates ([3]; S9 Mix(−), 313 μg/plate, Phosphate): 9 colonies/plate and 7 colonies/plate
- number of back mutation, mean (in parentheses) ([3]; S9 Mix(−), 625 μg/plate): (9) colonies/plate
- number of back mutation, mean (in parentheses) ([3]; S9 Mix(−), 1250 μg/plate): (6) colonies/plate
- number of back mutation, mean (in parentheses) ([3]; S9 Mix(−), 2500 μg/plate): (16) colonies/plate
- number of back mutation, single plates ([3]; S9 Mix(−), 2500 μg/plate, Phosphate): 15 colonies/plate and 17 colonies/plate
- number of back mutation, mean (in parentheses) ([3]; S9 Mix(−), 5000 μg/plate): (8) colonies/plate
- number of back mutation, single plates ([3]; S9 Mix(−), 5000 μg/plate, Phosphate): 9 colonies/plate and 7 colonies/plate
